Measured values as given in patent publication US10266544B2, “Aryl substituted aminomethyl spectinomycin analogs as antibacterial agents” (ST. JUDE CHILDREN'S RESEARCH HOSPITAL, INC., priority 2013, dated 2019).
Converted amounts (≈) assume the structure as drawn. Where a name gives a salt, the structure may show the parent alone. Read-outs that look alike come from different tables or passages of the source.

What was measured:
Format in all cases: cell-based
[1] = test system: Bacillus anthracis, Sterne 34F2; assay: microbe, parasite or virus in culture; conditions: STERNE34F2, read-out: MIC B.a.
[2] = test system: Bacillus subtilis (ATCC 23857); assay: MIC determination, microbroth dilution; conditions: ATCC23857; Bacillus subtilis (ATCC 23857); read-out: MIC B.s.
[3] = test system: Staphylococcus aureus (ATCC 29213); assay: MIC determination, microbroth dilution
[4] = test system: MRSA, Staphylococcus aureus (NRS70); assay: MIC determination, microbroth dilution; conditions: read-out: MIC MRSA
[5] = test system: Streptococcus pneumoniae (R6); assay: MIC determination, microbroth dilution; conditions: Streptococcus pneumoniae (R6); read-out: MIC S. pn.
[6] = test system: Streptococcus pyogenes (ATCC 700294); assay: MIC determination, microbroth dilution; conditions: ATCC700294; Streptococcus pyogenes (ATCC 700294); read-out: MIC S. py.
[7] = test system: acinetobacter baumannii (ATCC 19606); assay: MIC determination, microbroth dilution; conditions: ATCC19606
[8] = test system: Burkholderia cepacia (ATCC 25416); assay: MIC determination, microbroth dilution; conditions: Burkholderia cepacia
[9] = test system: Escherichia coli (ATCC 700926); assay: MIC determination, microbroth dilution; conditions: ATCC700926; Escherichia coli (ATCC 700926); read-out: MIC E.c.
Experimental: MICs were determined using the microbroth dilution method according to Clinical Laboratory Standards Institute (CLSI; National, C. F. C. L. S., Methods for Dilution Antimicrobial Susceptibility Tests for Bacteria Grow aerobically-Seventh Edition: Approved Standard M7-A7, CLSI, Wayne, Pa., USA, 2008) and were read by visual inspection. Two fold serial dilutions of antibiotic in 100 μL of the appropriate broth media were first prepared in 96-well round bottom microtiter plates (Nalge Nunc International, Rochester, N.Y., USA). An equivalent volume (100 μL) of bacterial broth inocula containing approximately 10^5 bacterial cfu/mL was added to each well to give final concentrations of drug starting at 200 μg/mL and the plates were incubated aerobically at 37° C. M. tuberculosis microtiter plates were incubated for 7 days and all other strains were incubated overnight. After incubations, in all cases the MIC was recorded as the lowest concentration of drug that prevented bacterial growth.

E. coli K12 ΔtolC = assay: microbe, parasite or virus in culture; conditions: Escherichia coli, read-out: MIC E.c. Δtolc
[10] = test system: Klebsiella pneumoniae (ATCC 33495); assay: MIC determination, microbroth dilution; conditions: ATCC33495
[11] = test system: Pseudomonas aeruginosa (PA01); assay: MIC determination, microbroth dilution
[12] = test system: Proteus mirabilis (ATCC 25933); assay: MIC determination, microbroth dilution; conditions: ATCC25933
[13] = test system: Proteus vulgaris (ATCC 33420); assay: MIC determination, microbroth dilution; conditions: ATCC33420
[14] = test system: Stenotrophomonas maltophilia (ATCC 13637); assay: MIC determination, microbroth dilution; conditions: ATCC13637; Stenotrophomonas maltophilia (ATCC 13637); read-out: MIC S.m.
[15] = test system: Haemophilus influenza (ATCC 49247); assay: microbe, parasite or virus in culture; conditions: ATCC49247; Haemophilus influenza; 4 μg per disc; range of at least two experiments; read-out: Zone of inhibition H.i.
[16] = test system: Legionella pneumophila (ATCC 33153); assay: microbe, parasite or virus in culture; conditions: ATCC33153, 72 h, read-out: Zone of inhibition L.p.
[17] = test system: Neisseria gonorrhoeae (ATCC 49226); assay: Disc diffusion assay; conditions: ATCC49226, 4 μg per disc, read-out: Zone of inhibition N.g.
[18] = test system: M. tuberculosis clinical isolates; assay: microbe, parasite or virus in culture; conditions: Mycobacterium tuberculosis
[19] = test system: Enterococcus faecalis (ATCC 33186); assay: MIC determination, microbroth dilution
Bacillus anthracis = assay: microbe, parasite or virus in culture; conditions: read-out: MIC B.a.
[20] = ATCC29213, Staphylococcus aureus (ATCC 29213), read-out: MIC S.a.
[21] = ATCC25416, read-out: MIC B.c., Burkholderia cepacia (ATCC 25416)
[22] = Staphylococcus aureus, ATCC29213, read-out: MIC S.a.
[23] = ATCC25416, read-out: MIC B.c., Burkholderia cepacia, Table 6
[24] = ATCC33186, Enterococcus faecalis (ATCC 33186), read-out: MIC E.f.

Compound	MIC [1] [µg/mL]	MIC [2] [µg/mL]	MIC [3, 20] [µg/mL]	MIC ([4]; Staphylococcus aureus (NRS70)) [µg/mL]	MIC [5] [µg/mL]	MIC [6] [µg/mL]	MIC [7] [µg/mL]	MIC [8, 21] [µg/mL]	MIC [9] [µg/mL]	MIC (E. coli K12 ΔtolC) [µg/mL]	MIC [10] [µg/mL]	MIC ([18]; H37RV, read-out: MIC H37Rv) [µg/mL]	MIC [19, 24] [µg/mL]	other results
CN[C@@H]1[C@H](O)[C@H](NC)[C@H]2O[C@]3(O)[C@H](O[C@@H]2[C@H]1O)O[C@H](C)C[C@@]3(O)CNc1ccc(F)cc1 [compound 31, 3′-(R)-3′-[(4-fluoro)phenylaminomethyl)]dihydrospectinomycin Trihydrochloride]	200	200	200	> 200	12.5 to 25	12.5 to 25	> 200	> 200	100 to 200	50 to 100	> 200	200	–	MIC [11]: > 200 µg/mL; MIC [12]: > 200 µg/mL; MIC [13]: > 200 µg/mL; MIC [14]: 200 µg/mL; zone of inhibition at 4 µg/disc [15]: 6 mm; zone of inhibition at 4 µg/disc [16]: 0 mm; zone of inhibition at 4 µg/disc [17]: 12 mm
CN[C@@H]1[C@H](O)[C@H](NC)[C@H]2O[C@]3(O)[C@H](O[C@@H]2[C@H]1O)O[C@H](C)C[C@@]3(O)CNCCc1ccc(C)cc1 [compound 32, 3′-(R)-3′-[(4-Methyl)]Phenethylaminomethyl)]Dihydrospectinomycin Trihydrochloride]	12.5	3.1 to 6.3	–	–	6.3	3.1 to 6.3	> 200	> 200	100 to 200	50 to 100	> 200	3.1	–	MIC ([19]; Enterococcus faecalis, ATCC33186, read-out: MIC E.f.): 12.5 µg/mL; MIC [3, 22]: 12.5 µg/mL; MIC ([4]; Staphylococcus aureus): 12.5 to 25 µg/mL; MIC [8, 23]: ≥ 200 µg/mL; MIC [11]: ≥ 200 µg/mL; MIC [12]: > 200 µg/mL; MIC [13]: 100 µg/mL; MIC [14]: 6.3 µg/mL; MIC (Bacillus anthracis): 12.5 µg/mL; MIC ([18]; read-out: MIC TN022): 6.3 µg/mL; MIC ([18]; read-out: MIC TN026): 6.3 µg/mL
CN[C@@H]1[C@H](O)[C@H](NC)[C@H]2O[C@]3(O)[C@H](O[C@@H]2[C@H]1O)O[C@H](C)C[C@@]3(O)CNCCc1ccc(F)cc1 [compound 33, 3′-(R)-3′-(4-FLUOROphenethylaminomethyl)dihydrospectinomycin Trihydrochloride]	12.5	3.1 to 6.3	–	25 to 50	–	–	> 200	≥ 200	12.5	6.3	200	3.1	25	MIC [3, 22]: 12.5 to 25 µg/mL; MIC [8, 23]: > 200 µg/mL; MIC (Bacillus anthracis): 12.5 µg/mL; MIC ([18]; read-out: MIC TN022): 6.3 µg/mL; MIC ([18]; read-out: MIC TN026): 6.3 µg/mL
CN[C@@H]1[C@H](O)[C@H](NC)C2O[C@]3(O)C(OC2[C@H]1O)O[C@H](C)C[C@@]3(O)CNCc1cn(C)c2ccccc12 (some centres unmarked) [compound 37]	> 200	12.5 (≈ 24.7 µM)	50 (≈ 98.7 µM)	200 (≈ 395 µM)	25 (≈ 49.3 µM)	12.5 (≈ 24.7 µM)	–	–	–	–	–	50 (≈ 98.7 µM)	50 (≈ 98.7 µM)	–
CN[C@@H]1[C@H](O)[C@H](NC)C2O[C@]3(O)C(OC2[C@H]1O)O[C@H](C)C[C@@]3(O)CNCCCc1ccco1 (some centres unmarked) [compound 38]	> 200	6.25 (≈ 13.3 µM)	50 (≈ 106 µM)	100 (≈ 212 µM)	12.5 (≈ 26.5 µM)	25 (≈ 53 µM)	–	–	–	–	–	6.3 (≈ 13.4 µM)	50 (≈ 106 µM)	–
CN[C@@H]1[C@H](O)[C@H](NC)C2O[C@]3(O)C(OC2[C@H]1O)O[C@H](C)C[C@@]3(O)CNCc1ccc2ccccc2c1 (some centres unmarked) [compound 39]	> 200	25 (≈ 49.6 µM)	100 (≈ 199 µM)	100 (≈ 199 µM)	12.5 (≈ 24.8 µM)	12.5 (≈ 24.8 µM)	–	–	–	–	–	50 (≈ 99.3 µM)	50 (≈ 99.3 µM)	–
CN[C@@H]1[C@H](O)[C@H](NC)C2O[C@]3(O)C(OC2[C@H]1O)O[C@H](C)C[C@@]3(O)CNCc1ccc(-c2ccccc2)cc1 (some centres unmarked) [compound 40]	> 200	50 (≈ 94.4 µM)	100 (≈ 189 µM)	100 (≈ 189 µM)	12.5 (≈ 23.6 µM)	6.25 (≈ 11.8 µM)	–	–	–	–	–	100 (≈ 189 µM)	25 (≈ 47.2 µM)	–
CN[C@@H]1[C@H](O)[C@H](NC)C2O[C@]3(O)C(OC2[C@H]1O)O[C@H](C)C[C@@]3(O)CNCc1cccc(C(=O)OC)c1 (some centres unmarked) [compound 41]	> 200	50 (≈ 97.7 µM)	200 (≈ 391 µM)	200 (≈ 391 µM)	50 (≈ 97.7 µM)	50 (≈ 97.7 µM)	–	–	–	–	–	50 (≈ 97.7 µM)	200 (≈ 391 µM)	–
